The text below walks through data of patent publication US11241427B2, “Small molecule modulators of NR2F6 activity” (Regen Biopharma, Inc., priority 2015, dated 2022).

In this experiment the target is T1, NR2F6 (ligand binding domain, amino acids 163-404) (Homo sapiens, UniProt P10588).
T1 construct: HIS (N, cleaved yes); FLAG (N, cleaved yes); TEV site (N, cleaved yes); made in house; host or cells: E. coli BL21 (DE3)
T1 sequence (P10588 163-404): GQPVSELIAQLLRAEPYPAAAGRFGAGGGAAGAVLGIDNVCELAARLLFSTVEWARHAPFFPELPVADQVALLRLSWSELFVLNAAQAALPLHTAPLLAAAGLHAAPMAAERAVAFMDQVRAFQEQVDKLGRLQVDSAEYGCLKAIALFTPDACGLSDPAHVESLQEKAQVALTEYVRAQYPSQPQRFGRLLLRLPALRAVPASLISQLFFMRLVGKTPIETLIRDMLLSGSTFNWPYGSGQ
The experiment in a line: Thermoshift analysis (TSA) of compound binding to NR2F6. To be noted: for Tm: NR2F6 alone Tm 48 °C. The procedure: The binding interaction between target protein NR2F6 and 139 compounds selected from an in silico screen was assessed using thermoshift analysis (TSA). Thermoshift is a physical technique used to determine the melting temperature of a protein. The interaction of the ligand to the folded state of the protein shifts the melting temperature. In the experimental system used, the NR2F6 protein is mixed with the ligand and the fluorescent dye SYPRO Orange®. The fluorescence is monitored over temperature gradient between 20 and 95° C. with 0.5° C. increment. The dye binds to the hydrophobic regions of molten globules and denatured proteins resulting in an increase of fluorescence. A plot of the fluorescence is obtained and used to determine the melting temperature in absence and presence of ligand.
The ligand binding domain of NR2F6 (amino acids 163-404) was cloned for soluble expression in E. coli with an N-terminal HIS-FLAG-TEV-tag. Expression was performed in BL21 (DE3) cells. In brief, a 12L E. coli culture was induced with IPTG in logarithmic phase and further incubated over night at 18° C. Cells were harvested via centrifugation, washed with buffer and stored at […] until purification.
The purification procedure performed consists of HIS affinity chromatography, tag cleavage, negative affinity chromatography, size exclusion chromatography and ion exchange chromatography.
Thermoshift analysis was performed on 139 Compounds that were stored as powder in DMSO stocks. A reaction volume of 25 μl was used, with reaction temperatures being increased in 0.5 increments from 20-95° C. in 96 well, PCR plates (Hard-Shell®, HSP-9655). The control was NR2F6 protein alone in 1% DMSO. For performing the reaction, a reaction buffer comprising of the following was utilized: 20 mM HEPES pH 6.85, 150 mM NaCl, 10% Glycerin and 0.5 mM TCEP.
The following pipetting sequence was used: 1) Add appropriate volume of target enzyme in reaction buffer; 2) Add appropriate volume of dye SYPRO Orange® in reaction buffer; 3) Add inhibitor in 100% DMSO (1% final DMSO conc); 4) Measure fluorescence
Fluorescence was quantified using a CFX Connect™ Real-Time PCR Detection System (BioRad)
An increase in melting temperature is indicative for compound binding.

[1] abbreviates: Table 1.1, 100 μM compound, 0.5 mg/ml NR2F6, 1% DMSO.
The mark [2] stands for this setting: Table 1.1, 100 μM compound, shift versus NR2F6 alone (Tm 48 °C).
Setting [3] is: Table 1.1, 100 μM compound, shift versus NR2F6 alone (Tm 48 °C), read-out: delta Tm.

Read-outs that look alike come from different tables or passages of the source.

For `CC(=O)c1ccc(N2CCN(C(=S)Nc3ccc(Oc4ccccc4)cc3)CC2)cc1` [Cpd 131], the Tm under setting [1] worked out at 47.5 °C. The “delta Tm” value under setting [2] is −0.5 °C.

For the molecule `O=Cc1c2c(cc3c1=Nc1ccccc1-3)=Nc1ccccc1-2` [Cpd 17, 6-Formylindolo [3,2-B] carbazole], the Tm (Table 1.2, 100 μM compound) is 50 °C.

Take `COc1ccc(NS(=O)(=O)c2cccc(NC(=O)c3ccc(Cl)nc3)c2)cc1` [Cpd 116]: the Tm under setting [1] worked out at 47.5 °C. In addition, under setting [2], the “delta Tm” value is −0.5 °C.

With `CC/C=C\C/C=C\C/C=C\C/C=C\C/C=C\C/C=C\CCC(=O)O` [Cpd 89, Docosa-4Z,7Z,10Z,13Z,16Z,19Z-hexaenoic acid], the Tm under setting [1] came out at 47.5 °C. Moreover, the ΔTm at 100 µM under setting [3] was -0.5 °C.

Consider `COc1ccc(CN(C)c2ccc(S(=O)(=O)N3CCN(C)CC3)cc2[N+](=O)[O-])cc1OC` [Cpd 129], for which the Tm under setting [1] was found to be 47.5 °C. Further, the “delta Tm” value under setting [2] is −0.5 °C.

Take `CCCCC/C=C/C=C1/C(=O)C=C[C@@H]1C/C=C\CCCC(=O)O` [Cpd 73, 15-Deoxy-D12,14-prostaglandin J2]: the Tm under setting [1] was determined as 48 °C. Besides, the “delta Tm” value under setting [2] came out at 0 °C.

Turning to `CCN(CC)S(=O)(=O)c1cccc(NC(=O)COC(=O)c2[nH]c(C)c(C(C)=O)c2C)c1` [Cpd 123], the Tm under setting [1] is 47.5 °C. Further, under setting [2], the “delta Tm” value was −0.5 °C.

For the molecule `CC(C)=CCC/C(C)=C/CC/C(C)=C/CC/C(C)=C/CO` [Cpd 88, Geranylgeranoil], the Tm under setting [1] worked out at 47.5 °C. For the same molecule, the “delta Tm” value under setting [2] was −0.5 °C.

Turning to `CCN(CC)S(=O)(=O)c1cccc(NC(=O)CNc2cccc(S(=O)(=O)N3CCCC3)c2)c1` [Cpd 133], the Tm reads like this: under setting [1], 49 °C; (Table 1.2, 100 μM compound) 49 °C. In addition, under setting [3], the ΔTm at 100 µM was 1 °C.

As for `CO[C@H]1/C=C/O[C@@]2(C)Oc3c(C)c(O)c4c(O)c(c(/C=N/N5CCN(C)CC5)c(O)c4c3C2=O)NC(=O)/C(C)=C\C=C\[C@H](C)[C@H](O)[C@@H](C)[C@@H](O)[C@@H](C)[C@H](OC(C)=O)[C@@H]1C` [Cpd 87, Rifampicin], the Tm stood at 49.5 °C under setting [1] and 49.5 °C (Table 1.2, 100 μM compound). Moreover, under setting [3], the ΔTm at 100 µM amounted to 1.5 °C.

As to `CCCCCCCC/C=C\CCCCCCCC(=O)NCCO` [Cpd 76, N-Oleoylethanolamide], the Tm under setting [1] worked out at 48.5 °C. Further, the “delta Tm” value under setting [2] turned out to be 0.5 °C.

On to `C[C@H](CCC(=O)NCC(=O)O)[C@H]1CC[C@H]2[C@@H]3[C@H](O)C[C@@H]4C[C@H](O)CC[C@]4(C)[C@H]3C[C@H](O)[C@]12C` [Cpd 63, Glycochalic acid], for which the Tm under setting [1] came out at 48 °C. Further, the “delta Tm” value under setting [2] came to 0 °C.

For the molecule `C[C@]12CC[C@@H]3c4ccc(O)cc4CC[C@H]3[C@@H]1CC[C@@H]2O` [Cpd 65, 17b-Estradiol], the Tm under setting [1] came out at 47 °C. Besides, under setting [2], the “delta Tm” value was −1 °C.

For `Clc1ccc(OCCN2CCN(c3ncnc4sccc34)CC2)cc1` [Cpd 120], the Tm under setting [1] was determined as 46.5 °C. Further, the “delta Tm” value under setting [2] is −1.5 °C.

Consider `Cc1cc(-n2c(C)cc(C(=O)CSc3ncnc4ccccc34)c2C)no1` [Cpd 122], for which, under setting [1], the Tm was 47.5 °C. Further, the “delta Tm” value under setting [2] was −0.5 °C.

For the molecule `CC1(COc2ccc(CC3SC(=O)NC3=O)cc2)CCCCC1` (stereo not shown) [Cpd 72, Ciglitazone], the ΔTm at 100 µM under setting [3] was -0.5 °C.

Consider `N[C@@H](Cc1cc(I)c(O)c(I)c1)C(=O)O` [Cpd 86, 3,5-Diiodo-L-tyrosine], for which the ΔTm at 100 µM was 2 °C. Further, the Tm under setting [1] came to 50 °C. For the same molecule, the Tm (Table 1.2, 100 μM compound) turned out to be 50 °C.

In the case of `CC1=C(/C=C/C(C)=C/C=C/C(C)=C/C(=O)Nc2ccc(O)cc2)C(C)(C)CCC1` [Cpd 43, 4-Hydroxyphenylretinamide], the Tm (Table 1.2, 100 μM compound) amounted to 50 °C.

With `Clc1cnc(Oc2ccc(Oc3ncc(Cl)cc3Cl)cc2)c(Cl)c1` [Cpd 70, TCPOBOP], the Tm under setting [1] was 48 °C. For the same molecule, the “delta Tm” value under setting [2] was 0 °C.

Consider `Clc1ccc(-c2nc3sccn3c2/C=N/OCc2ccc(Cl)c(Cl)c2)cc1` [Cpd 85, CITCO], for which, under setting [1], the Tm is 48 °C. For the same molecule, the “delta Tm” value under setting [2] stood at 0 °C.
